The values below come from patent US9663530B2, “5-oxa-2-azabicyclo[2.2.2]OCTAN-4-yl and 5-oxa-2-azabicyclo[2.2.1]heptan-4-yl derivatives” (Hoffmann-La Roche Inc., priority 2014, dated 2017).

The target in assay [1] is rat TAAR1 (Rattus norvegicus (Rat), UniProt Q923Y9). The experiment in a line: Radioligand binding assay on rat TAAR1. The following applies: rat TAAR1 (second value of the cell); membranes of HEK-293 cells stably expressing rat TAAR1; read-out: Ki (μM) mouse/rat. Here is the method:
(§1) Construction of TAAR Expression Plasmids and Stably Transfected Cell Lines
(§2) For the construction of expression plasmids the coding sequences of human, rat and mouse TAAR 1 were amplified from genomic DNA essentially as described by Lindemann et al.. The Expand High Fidelity PCR System (Roche Diagnostics) was used with 1.5 mM Mg^2+ and purified PCR products were cloned into pCR2.1-TOPO cloning vector (Invitrogen) following the instructions of the manufacturer. PCR products were subcloned into the pIRESneo2 vector (BD Clontech, Palo Alto, Calif.), and expression vectors were sequence verified before introduction in cell lines.
(§3) HEK293 cells (ATCC # CRL-1573) were cultured essentially as described by Lindemann et al. (2005). For the generation of stably transfected cell lines HEK293 cells were transfected with the pIRESneo2 expression plasmids containing the TAAR coding sequences (described above) with Lipofectamine 2000 (Invitrogen) according to the instructions of the manufacturer, and 24 hrs post transfection the culture medium was supplemented with 1 mg/ml G418 (Sigma, Buchs, Switzerland). After a culture period of about 10 d clones were isolated, expanded and tested for responsiveness to trace amines (all compounds purchased from Sigma) with the cAMP Biotrak Enzyme immunoassay (EIA) System (Amersham) following the non-acetylation EIA procedure provided by the manufacturer.
Radioligand Binding Assay on Rat TAAR1
(§4) Membrane Preparation and Radioligand Binding.
HEK-293 cells stably expressing rat TAAR1 were maintained at 37° C. and 5% CO2 in DMEM high glucose medium, containing fetal calf serum (10%, heat inactivated for 30 min at 56° C.), penicillin/streptomycin (1%), and 375 μg/ml geneticin (Gibco). Cells were released from culture flasks using trypsin/EDTA, harvested, washed twice with ice-cold PBS (without Ca^2+ and Mg^2+), pelleted at 1,000 rpm for 5 min at 4° C., frozen and stored at −80° C. Frozen pellets were suspended in 20 ml HEPES-NaOH (20 mM, pH 7.4) containing 10 mM EDTA and homogenized with a Polytron (PT 6000, Kinematica) at 14,000 rpm for 20 s. The homogenate was centrifuged at 48,000×g for 30 min at 4° C. Subsequently, the supernatant was removed and discarded, and the pellet resuspended in 20 ml HEPES-NaOH (20 mM, pH 7.4) containing 0.1 mM EDTA using the Polytron (20 s at 14,000 rpm). This procedure was repeated and the final pellet resuspended in HEPES-NaOH containing 0.1 mM EDTA and homogenized using the Polytron. Typically, aliquots of 2 ml membrane portions were stored at −80° C. With each new membrane batch the dissociation constant (Kd) was determined via a saturation curve. […] Nonspecific binding was defined as the amount of ^3[H]-(S)-4-[(ethyl-phenyl-amino)-methyl]-4,5-dihydro-oxazol-2-ylamine bound in the presence of 10 μM unlabeled ligand. All compounds were tested at a broad range of concentrations ([…]) in duplicates. The test compounds (20 […]μl/well) were transferred into a 96 deep well plate (TreffLab), and 180 μl of HEPES-NaOH (20 mM, pH 7.4) containing MgCl2 (10 mM) and CaCl2 (2 mM) (binding buffer), 300 μl of the radioligand ^3[H]-(S)-4-[(ethyl-phenyl-amino)-methyl]-4,5-dihydro-oxazol-2-ylamine at a concentration of 3.3×Kd in nM and 500 μl of the membranes (resuspended at 50 μg protein per ml) added. The 96 deep well plates were incubated for 1 hr at 4° C. Incubations were terminated by rapid filtration through Unifilter-96 plates (Packard Instrument Company) and glass filters GF/C (Perkin Elmer) presoaked for 1 hr in polyethylenimine (0.3%) and washed 3 times with 1 ml of cold binding buffer. After addition of 45 μl of Microscint 40 (PerkinElmer) the Unifilter-96 plate was sealed and after 1 hr the ratioactivity counted using a TopCount Microplate Scintillation Counter (Packard Instrument Company).

Assay [2] deals with mouse TAAR1 (Mus musculus (Mouse), UniProt Q923Y8). The experiment in a line: Radioligand binding assay on mouse TAAR1. The note with it: mouse TAAR1 (first value of the cell); membranes of HEK-293 cells stably expressing mouse TAAR1; read-out: Ki (μM) mouse/rat. Here is the method: as §1, §2, §3
Chain of mouse TAAR1 (Q923Y8 whole entry): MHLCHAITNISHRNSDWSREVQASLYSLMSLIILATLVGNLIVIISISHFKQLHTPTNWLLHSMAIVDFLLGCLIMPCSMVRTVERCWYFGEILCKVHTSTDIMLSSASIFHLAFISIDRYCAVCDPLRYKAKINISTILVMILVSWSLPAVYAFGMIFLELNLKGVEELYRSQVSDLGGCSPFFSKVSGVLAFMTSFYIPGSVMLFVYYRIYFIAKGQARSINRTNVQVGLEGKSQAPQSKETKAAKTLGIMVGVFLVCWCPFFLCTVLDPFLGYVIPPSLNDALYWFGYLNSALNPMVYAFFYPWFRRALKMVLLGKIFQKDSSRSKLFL
Radioligand Binding Assay on Mouse TAAR1
as §4
HEK-293 cells stably expressing mouse TAAR1 were maintained at 37° C. and 5% CO2 in DMEM high glucose medium, containing fetal calf serum (10%, heat inactivated for 30 min at 56° C.), penicillin/streptomycin (1%), and 375 μg/ml geneticin (Gibco). Cells were released from culture flasks using trypsin/EDTA, harvested, washed twice with ice-cold PBS (without Ca^2+and Mg^2+), pelleted at 1,000 rpm for 5 min at 4° C., frozen and stored at −80° C. Frozen pellets were suspended in 20 ml HEPES-NaOH (20 mM, pH 7.4) containing 10 mM EDTA and homogenized with a Polytron (PT 6000, Kinematica) at 14,000 rpm for 20 s. The homogenate was centrifuged at 48,000×g for 30 min at 4° C. Subsequently, the supernatant was removed and discarded, and the pellet resuspended in 20 ml HEPES-NaOH (20 mM, pH 7.4) containing 0.1 mM EDTA using the Polytron (20 s at 14,000 rpm). This procedure was repeated and the final pellet resuspended in HEPES-NaOH containing 0.1 mM EDTA and homogenized using the Polytron. Typically, aliquots of 2 ml membrane portions were stored at −80° C. With each new membrane batch the dissociation constant (Kd) was determined via a saturation curve. The TAAR1 radioligand ^3[H]-(S)-4-[(ethyl-phenyl-amino)-methyl]-4,5-dihydro-oxazol-2-ylamine (described in WO 2008/098857) was used at a concentration equal to the calculated Kd value, that was usually around 0.7 nM, resulting in the binding of approximately 0.5% of the radioligand and a specific binding representing approximately 70% of the total binding. Nonspecific binding was defined as the amount of ^3[H]-(S)-4-[(ethyl-phenyl-amino)-methyl]-4,5-dihydro-oxazol-2-ylamine bound in the presence of 10 μM unlabeled ligand. All compounds were tested at a broad range of concentrations ([…]) in duplicates. The test compounds (20 […]μl/well) were transferred into a 96 deep well plate (TreffLab), and 180 μl of HEPES-NaOH (20 mM, pH 7.4) containing MgCl2 (10 mM) and CaCl2 (2 mM) (binding buffer), 300 μl of the radioligand ^3[H]-(S)-4-[(ethyl-phenyl-amino)-methyl]-4,5-dihydro-oxazol-2-ylamine at a concentration of 3.3×Kd in nM and 500 μl of the membranes (resuspended at […]) added. The 96 deep well plates were incubated for 1 hr at 4° C. Incubations were terminated by rapid filtration through Unifilter-96 plates (Packard Instrument Company) and glass filters GF/C (Perkin Elmer) presoaked for 1 hr in polyethylenimine (0.3%) and washed 3 times with 1 ml of cold binding buffer. […]

Chain of rat TAAR1 (Q923Y9 whole entry): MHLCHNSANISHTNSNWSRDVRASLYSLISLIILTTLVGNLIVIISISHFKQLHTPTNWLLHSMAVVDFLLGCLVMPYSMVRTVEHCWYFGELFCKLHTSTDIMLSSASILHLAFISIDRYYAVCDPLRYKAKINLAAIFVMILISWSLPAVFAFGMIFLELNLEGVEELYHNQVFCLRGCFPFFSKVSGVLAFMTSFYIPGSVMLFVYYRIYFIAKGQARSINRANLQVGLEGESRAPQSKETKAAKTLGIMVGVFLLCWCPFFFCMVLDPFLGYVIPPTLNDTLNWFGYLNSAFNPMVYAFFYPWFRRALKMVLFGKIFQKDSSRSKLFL

Consider `O=C(Nc1ccc(C[C@]23CN[C@H](CO2)C3)cc1)c1cnc(C2CC2)nc1` [Example 28, 2-Cyclopropyl-N-[4-[[(1S,4S)-5-oxa-2-azabicyclo[2.2.1]heptan-4-yl]methyl]phenyl]pyrimidine-5-carboxamide], for which the Ki was determined as 1.58 µM in assay [1] and 0.36 µM in assay [2].

In the case of `FC(F)(F)c1cnc(Nc2ccc(C[C@]34CN[C@H](CO3)C4)cc2)nc1` [Example 33, N-[4-[[(1S,4S)-5-Oxa-2-azabicyclo[2.2.1]heptan-4-yl]methyl]phenyl]-5-(trifluoromethyl)pyrimidin-2-amine], the figures for the Ki in assay [1] and in assay [2] were 0.881 µM and 5.8 µM, respectively.

In the case of `FC(F)(F)c1nccc(Nc2ccc([C@]34CN[C@H](CO3)C4)cc2)n1` [Example 62, N-[4-[(1S,4R)-5-Oxa-2-azabicyclo[2.2.1]heptan-4-yl]phenyl]-2-(trifluoromethyl)pyrimidin-4-amine], the Ki was 0.233 µM in assay [1] and 0.144 µM in assay [2].

Take `O=C(Nc1ccc(C[C@]23CN[C@H](CO2)C3)cc1)c1ccc(Cl)cc1` [Example 15, 4-Chloro-N-[4-[[(1S,4S)-5-oxa-2-azabicyclo[2.2.1]heptan-4-yl]methyl]phenyl]benzamide]: the figures for the Ki in assay [1] and in assay [2] were 0.0505 µM and 0.0853 µM, respectively.

Consider `O=C(Nc1ccc(C(F)(F)F)cc1)Nc1ccc(C23CCC(CO2)NC3)cc1` (racemic) [Example 67, (RS)-1-[4-(5-Oxa-2-azabicyclo[2.2.2]octan-4-yl)phenyl]-3-[4-(trifluoromethyl)phenyl]urea], for which the Ki was 0.0263 µM in assay [1] and 0.0137 µM in assay [2].

In the case of `O=C(Nc1ccc(C[C@@]23CN[C@@H](CO2)C3)cc1)c1ccnc(C(F)(F)F)c1` [Example 40, N-[4-[[(1R,4R)-5-Oxa-2-azabicyclo[2.2.1]heptan-4-yl]methyl]phenyl]-2-(trifluoromethyl)pyridine-4-carboxamide], the results for the Ki in assay [1] and in assay [2] were 0.0987 µM and 0.0522 µM, respectively.

In the case of `O=C(Nc1ccc(C[C@]23CN[C@H](CO2)C3)cc1)c1ccc(OCC2CC2)cc1` [Example 25, 4-(Cyclopropylmethoxy)-N-[4-[[(1S,4S)-5-oxa-2-azabicyclo[2.2.1]heptan-4-yl]methyl]phenyl]benzamide], the results for the Ki in assay [1] and in assay [2] were 0.0175 µM and 0.168 µM, respectively.

As for `Clc1ccc(Nc2ccc([C@]34CN[C@H](CO3)C4)cc2)nc1` [Example 7, 5-Chloro-N-[4-[(1S,4R)-5-oxa-2-azabicyclo[2.2.1]heptan-4-yl]phenyl]pyridin-2-amine], the Ki in assay [1] came out at 0.309 µM; in assay [2], 0.0414 µM.

In the case of `O=C(Nc1ccc(C23CCC(CO2)NC3)cc1)c1cccc(Cl)c1` (stereo not shown) [Example 6, 3-Chloro-N-[4-(5-oxa-2-azabicyclo[2.2.2]octan-4-yl)phenyl]benzamide], the Ki was 0.797 µM in assay [1] and 0.0044 µM in assay [2].

As to `O=C(Nc1ccc(Cl)cc1)Nc1ccc(C23CCC(CO2)NC3)cc1` (racemic) [Example 66, (RS)-1-(4-Chlorophenyl)-3-[4-(5-oxa-2-azabicyclo[2.2.2]octan-4-yl)phenyl]urea], the Ki in assay [1] was 0.0465 µM; in assay [2] it was 0.005 µM.

As to `O=C(Nc1ccc(C[C@]23CN[C@H](CO2)C3)cc1)Nc1cccc(Cl)c1` [Example 2, 1-(3-Chlorophenyl)-3-[4-[[(1S,4S)-5-oxa-2-azabicyclo[2.2.1]heptan-4-yl]methyl]phenyl]urea], the results for the Ki in assay [1] and in assay [2] were 0.0822 µM and 1.35 µM, respectively.

Consider `FC(F)(F)c1ccc(Nc2ccc([C@]34CN[C@H](CO3)C4)cc2)nc1` [Example 61, N-[4-[(1 S,4R)-5-Oxa-2-azabicyclo[2.2.1]heptan-4-yl]phenyl]-5-(trifluoromethyl)pyridin-2-amine], for which the Ki in assay [1] is 0.0293 µM; in assay [2], 0.0146 µM.

As to `O=C(Nc1ccc(C23CCC(CO2)NC3)cc1)c1ccnc(C(F)(F)F)c1` (racemic) [Example 37, (RS)—N-[4-(5-Oxa-2-azabicyclo[2.2.2]octan-4-yl)phenyl]-2-(trifluoromethyl)pyridine-4-carboxamide], the Ki was determined as 1.44 µM in assay [1] and 0.0377 µM in assay [2].

In the case of `O=C(Nc1ccc(C[C@@]23CN[C@@H](CO2)C3)cc1)c1ccc(Cl)cc1` [Example 21, 4-Chloro-N-[4-[[(1R,4R)-5-oxa-2-azabicyclo[2.2.1]heptan-4-yl]methyl]phenyl]benzamide], the Ki in assay [1] worked out at 0.0626 µM; in assay [2], 0.003 µM.

For `CCc1ncc(C(=O)Nc2ccc(C34CCC(CO3)NC4)cc2)cn1` (racemic) [Example 35, (RS)-2-Ethyl-N-[4-(5-oxa-2-azabicyclo[2.2.2]octan-4-yl)phenyl]pyrimidine-5-carboxamide], the Ki was 10 µM in assay [1] and 0.153 µM in assay [2].

Consider `FC(F)(F)c1nccc(Nc2ccc([C@@]34CN[C@@H](CO3)C4)cc2)n1` [Example 56, N-[4-[(1R,4S)-5-Oxa-2-azabicyclo[2.2.1]heptan-4-yl]phenyl]-2-(trifluoromethyl)pyrimidin-4-amine], for which the Ki was 2.41 µM in assay [1] and 0.0393 µM in assay [2].

On to `CCCc1n[nH]c(C(=O)Nc2ccc(C34CCC(CO3)NC4)cc2)c1Cl` (racemic) [Example 34, (RS)-4-Chloro-N-[4-(5-oxa-2-azabicyclo[2.2.2]octan-4-yl)phenyl]-3-propyl-1H-pyrazole-5-carboxamide], for which the Ki stood at 0.0973 µM in assay [1] and 0.0135 µM in assay [2].
